Test results published in the supplement of paper PMC3974653.
Where a name gives a salt, the structure may show the parent alone.

Key:
[1] = system: MTT (mouse pheochromocytoma); test: IC50 of cell viability (ATP content); AC50 where efficacy is positive; conditions: (24 or 48 h)
[2] = system: MTT (mouse pheochromocytoma); test: efficacy (maximal response) relative to doxorubicin = -100% and DMSO = 0%; higher = less inhibition of viability; conditions: (24 or 48 h)

| Compound | IC50 of cell viability [1] [µM] | efficacy [2] [%] |
| --- | --- | --- |
| CCCCCCCCCCCCCCCC[N+](C)(C)Cc1ccccc1.O.[Cl-] [CETALKONIUM CHLORIDE] | 15 | -56.9 |
| CCCCCCCCCCCCCCCCOCCOCCOCCOCCOCCOCCOCCOCCOCCOCCOCCOCCOCCOCCOCCOCCOCCOCCOCCOCCO [CETOMACROGOL EMULSIFYING WAX] | 16.8 | -80.5 |
| CN/C(=N/C#N)NCCSCc1nc[nH]c1C [CIMETIDINE] | 13.3 | -40.4 |
| Cc1c(C(=O)O)c(O)cc2c1C(=O)c1c(O)c([C@H]3O[C@H](CO)[C@@H](O)[C@H](O)[C@H]3O)c(O)c(O)c1C2=O [COCHINEAL] | 16.8 | -45.4 |
| C[C@@]12C(=O)OC(=O)[C@@]1(C)[C@H]1CC[C@H]2O1 [Cantharidin] | 1.28 | -39 |
| ClC(Cl)(Cl)SN1C(=O)C2C\C=C/CC2C1=O (centres undefined) [Captan] | 2.99 | -65.8 |
| CC(=O)C1(O)Cc2c(O)c3c(c(O)c2C(OC2CC(N)C(O)C(C)O2)C1)C(=O)c1c(O)cccc1C3=O (centres undefined) [Carminomycin] | 2.66 | -48.5 |
| CCCCCCCCCCCCCCCC[n+]1ccccc1 [Cetylpyridinium bromide] | 10.6 | -96.5 |
| CCCCCCCCCCCCCCCC[N+](C)(C)C [Cetyltrimethylammonium bromide] | 13.3 | -89.1 |
| Cc1nc2ccccc2n1Cc1ccc(Cl)cc1 [Chlormidazole] | 13.3 | -59 |
| CN(C)C1=CC=C(C=C1)C(C2=CC=C(C=C2)N(C)C)=C/3\C=C/C(/C=C3)=[N+](C)C [Chlorure de methylrosanilinum] | 23.7 | -111 |
| CC/1=C/C(=O)N(O)/C(=C1)C2CCCCC2 [Ciclopirox ethanolamine] | 4.53 | -84.9 |
| COC/1=C/C=C2\C(=C/C1=O)[C@H](CCC3=CC(=C(OC)C(=C23)OC)OC)NC(C)=O [Colchicine] | 0.473 | -84.8 |
| COc1cc(/C=C/C(=O)CC(=O)/C=C/c2ccc(O)c(OC)c2)ccc1O [Curcumin] | 16.8 | -79.7 |
| COC(=O)[C@H]1[C@H]2C[C@@H]3c4[nH]c5ccccc5c4CCN3C[C@H]2C[C@@H](OC(=O)c2cc(OC)c(OC)c(OC)c2)[C@@H]1OC [DESERPIDINE] | 13.3 | -92.6 |
| CCNC(=O)[C@@H]1CCCN1C(=O)[C@H](CCCNC(=N)N)NC(=O)[C@H](CC(C)C)NC(=O)[C@@H](Cc1c[nH]c2ccccc12)NC(=O)[C@H](Cc1ccc(O)cc1)NC(=O)[C@H](CO)NC(=O)[C@H](Cc1c[nH]c2ccccc12)NC(=O)[C@H](Cc1c[nH]cn1)NC(=O)[C@@H]1CCC(=O)N1 [DESLORELIN ACETATE] | 2.99 | -88.5 |
| CCN1/C(=C/C=C/C=C/c2sc3ccccc3[n+]2CC)Sc2ccccc21 [DITHIAZANINE IODIDE] | 18.8 | -109 |
| Cc1cc(N)c2ccccc2[n+]1CCCCCCCCCC[n+]1c(C)cc(N)c2ccccc21 [Dequalinium dichloride] | 11.4 | -81.5 |
| CCCCCCCC[N+](C)(C)CCCCCCCC [Dioctyl Dimethyl Ammonium Chloride] | 0.119 | -39.1 |
| CCCCCCCC[N+](C)(C)CCCCCCCC [Dioctyldimethylammonium chloride] | 0.531 | -48.6 |
| [O-][n+]1ccccc1SSc1cccc[n+]1[O-] [Dipyrithione] | 1.5 | -81 |
| CCCCCCCCCCCC[N+](C)(C)CCOc1ccccc1 [Domiphen bromide] | 15 | -99.3 |
| CC(C)(C)c1ccc(C(=O)CCCN2CCC(OC(c3ccccc3)c3ccccc3)CC2)cc1 [Ebastine] | 9.44 | -49.3 |
| CCOc1ccc(Cc2nccc3cc(OCC)c(OCC)cc23)cc1OCC [Ethaverine hydrochloride] | 3.6 | -60 |
| CCOc1ccc(/N=N/c2ccc(N)cc2N)cc1 [Ethoxazene hydrochloride] | 11.9 | -57.4 |
| O=S(=O)([O-])c1ccc2c(/N=N/c3ccc(S(=O)(=O)[O-])c4ccccc34)c(O)c(S(=O)(=O)[O-])cc2c1 [FD & C Red Dye No. 2] | 16.8 | -95.8 |

| Compound | IC50 of cell viability [1] [µM] | efficacy [2] [%] |
| --- | --- | --- |
| COCC(=O)NC1=CC(SC2=CC=CC=C2)=CC=C1\N=C(/NC(=O)OC)NC(=O)OC [FEBANTEL] | 18.8 | -48 |
| N#Cc1nn(-c2c(Cl)cc(C(F)(F)F)cc2Cl)c(N)c1[S+]([O-])C(F)(F)F (centres undefined) [FIPRONIL] | 23.7 | -88.6 |
| O=C(Nc1cccc(C(F)(F)F)c1)c1cc(Br)cc(Br)c1O [FLUOROSALAN] | 2.66 | -35.6 |
| COC(=O)Nc1nc2cc(Sc3ccccc3)ccc2[nH]1 [Fenbendazole] | 1.01 | -61.4 |
| CN1CC[C@@H]([C@@H](O)C1)C2=C(O)C=C(O)C3=C2O\C(=C/C3=O)C4=C(Cl)C=CC=C4 [Flavopiridol hydrochloride hydrate] | 1.88 | -71.3 |
| Cc1cc(O)c2c3c4c(cc(O)c13)C(C)(C)C(=O)c1c(O)cc(O)c(c1-4)C2=O [HELIOMYCINUM] | 3.35 | -46.4 |
| CC[n+]1c(-c2ccccc2)c2cc(N)ccc2c2ccc(N)cc21.[Br-] [HOMIDIUM BROMIDE] | 11.9 | -34.1 |
| COC(=O)C[C@](O)(CCCC(C)(C)O)C(=O)O[C@H]\1[C@H]2C3=CC4=C(OCO4)C=C3CCN5CCC[C@]25\C=C1OC [Homoharringtonine] | 0.237 | -73.7 |
| Cl.CCC1=C2CN3C(=O)\C4=C(/C=C3/C2=NC5=CC=C(OC(=O)N6CCC(CC6)N7CCCCC7)C=C15)[C@@](O)(CC)C(=O)OC4 [IRINOTECAN HYDROCHLORIDE] | 11.9 | -66.8 |
| CCC(C(=O)C(C)C(O)C(C)CCc1ccc(C)c(O)c1C(=O)[O-])C1OC(CC)(C2CC[C@@](O)(CC)C(C)O2)CC1C.[Na+] (some centres undefined) [LASALOCID SODIUM] | 4.22 | -40.1 |
| CCCCCCCCCCCC[n+]1ccc2ccccc2c1 [LAURYL ISOQUINOLINIUM BROMIDE] | 0.376 | -31.3 |
| C[C@]12O[C@H](C[C@]1(O)CO)n1c3ccccc3c3c4c(c5c6ccccc6n2c5c31)CNC4=O [LESTAURTINIB] | 2.66 | -83.2 |
| CN(C)C1=CC=C(C=C1)C(=C2\C=C/C(/C=C2)=[N+](/C)C)\C3=C(O)C(=CC4=CC(=CC=C34)S([O-])(=O)=O)S([O-])(=O)=O [LISSAMINE GREEN B] | 6.68 | -54.2 |
| CN(CCCN1c2ccccc2CCc2ccccc21)CC(=O)c1ccc(Cl)cc1 [LOFEPRAMINE HYDROCHLORIDE] | 26.6 | -62.9 |
| Oc1cccc[c]1[Hg][Cl] [MERCUFENOL CHLORIDE] | 2.99 | -83.5 |
| C\N=C1/C=C\C(\C=C1)=C(/C2=CC=C(C=C2)N(C)C)C3=CC=C(C=C3)N(C)C [METHYL VIOLET] | 7.5 | -70.3 |
| CO[C@@]12[C@H](COC(N)=O)C\3=C(/N1C[C@H]4N[C@@H]24)C(=O)\C(=C(N)/C3=O)C [MITOMYCIN C] | 1.5 | -34.6 |
| CCCCCCCCCCCCCC[n+]1ccc(C)cc1 [MYRISTYL-GAMMA-PICOLINIUM CHLORIDE] | 0.531 | -39.7 |
| CN(C)C1=CC=C(C=C1)C(C2=CC=CC=C2)=C/3\C=C/C(/C=C3)=[N+](C)C [Malachite Green Oxalate] | 8.41 | -61.3 |
| COC(=O)Nc1nc2cc(C(=O)c3ccccc3)ccc2[nH]1 [Mebendazole] | 0.64 | -49.2 |
| CCCCCCCCCCCCCCCC[N+](C)(C)CC [Mecetronium ethylsulfate] | 11.9 | -78.5 |
| Cc1cc(O)c2ccccc2c1O [Menadiol] | 26.6 | -94.6 |
| [Hg+2] [Mercuric chloride] | 2.37 | -90.3 |
| COCC(=O)O[C@]1(CCN(C)CCCc2nc3ccccc3[nH]2)CCc2cc(F)ccc2[C@@H]1C(C)C.Cl.Cl [Mibefradil dihydrochloride] | 11.9 | -97.9 |
| Oc1ccc(OCc2ccccc2)cc1 [Monobenzone] | 10.1 | -55.4 |
| CCC(C(=O)O)C1OC(C(C)C(O)C(C)C(=O)C(CC)C2OC3(C=CC(O)C4(CCC(C)(C5CCC(O)(CC)C(C)O5)O4)O3)C(C)CC2C)C(C)CC1C (centres undefined) [NARASIN] | 1.68 | -46.7 |
